Experimental data taken from publication PMC5175178, “Development of an in-vivo active reversible butyrylcholinesterase inhibitor” (Scientific Reports, 2016).
Like-named read-outs stand apart in the source and are kept apart here.

How the values were obtained:
HepG2 cells = test: Cytotoxicity in HepG2 cells, MTS metabolic activity assay; details: 24 h
Description: After 24 h (a) or 48 h (b), the cell viability was evaluated using the MTS assay. The control group (DMSO) was considered as 100% cell viability. Data are means ±SD of at least three independent experiments, each carried out in triplicate (a) and quadruplicate (b).
HepG2 cells (1 ×10^4 cells/well) were treated for 24 h with the appropriate concentrations of the compounds of interest or the corresponding vehicle (control cells), in triplicates in 96-well plates. The metabolic activities were determined using the CellTiter 96 Aqueous One Solution Cell Proliferation Assay (Promega, WI/USA), according to the manufacturer instructions.

Aβ1–42 aggregation = target: T1, Aβ1–42 aggregation (Homo sapiens, UniProt P05067); test: Aβ1–42 aggregation inhibition, dot-blot assay; format: biochemical; details: 10 μM compound
T1 construct: Recombinant human HFIP-pretreated Aβ1–42 peptide (Merck Millipore, Darmstadt, Germany); purchased Merck Millipore, Darmstadt, Germany
Description: Recombinant human HFIP-pretreated Aβ1–42 peptide (Merck Millipore, Darmstadt, Germany) was dissolved in DMSO to give 100 μM stock solution. Prior to the incubations, the Aβ1–42 peptide stock solution was diluted in HEPES buffered solution (150 mM HEPES, pH 7.4, 150 mM NaCl) to give 10 μM Aβ1–42. […]; 10 μM final concentration), and added to the black-walled 96-well plates in quadruplicate, and diluted with HEPES buffered solution to a final volume of 100 μL. To determine the blank value (b), 1% DMSO in HEPES buffered solution replaced the Aβ1–42 peptide solution. The sealed 96-well plate was placed in an incubator at 37 °C with continuous shaking, for 24 h. Then 10 μL from each well were spotted on nitrocellulose membrane. The membrane was dried and blocked with 5% non-fat milk in TBST (50 mM Tris, pH 7.4, 150 mM NaCl, 0.1% Tween 20) at room temperature for 30 min, washed with TBST, and probed with the LOC anti-amyloid fibrils antibody (Millipore, 1:10,000, in 2% non-fat milk-TBST) or the OC anti-amyloid fibrils antibody (Millipore, 1:10,000, in 2% non-fat milk-TBST), for 1 h. […] The blots were developed with Pierce ECL Western Blotting Substrate (Thermo Scientific) for 2 min, detected with a Bio-Rad ChemiDoc MP Imaging System, and further analyzed with Image Lab software (Bio-Rad). Inhibition of the Aβ1–42 aggregation was quantified using equation: […]

T1 sequence (P05067 672-713): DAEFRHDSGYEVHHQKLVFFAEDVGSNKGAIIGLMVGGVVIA

COCCN(CC1CCCN(Cc2ccccc2)C1)S(=O)(=O)c1ccc2ccccc2c1 (racemic) [compound 2, (±)-N-((1-benzylpiperidin-3-yl)methyl)-N-(2-methoxyethyl)naphthalene-2-sulfonamide]
LD50 HepG2 cells (HepG2 cells): 58.67 µM
inhibition at 10 µM (Aβ1–42 aggregation; read-out: Percent inhibition ±SEM (%) Dot blot (LOC antibody)): 12.7 ± 8.9%
inhibition at 10 µM (Aβ1–42 aggregation; read-out: Percent inhibition ±SEM (%) Dot blot (OC antibody)): 2.7 ± 9.32%
